# Assay results from patent US5643947A, “ω-amino-α-phenylalkanonitrile derivatives” (G. D. Searle & Co., priority 1995, dated 1997).
# Biological target: T1, slow Ca^2+ channel binding sites (Cavia porcellus, UniProt O35505)
# T1 construct: forebrain; from tissue; host or cells: guinea-pig forebrain
# Experiment: Ca2+ receptor binding, 3H-nitrendipine competition
# Parameters: species or system guinea-pig
# Conditions: 3H-nitrendipine competition; in words
# Experimental: (§1) Receptor binding experiments were conducted under the experimental conditions described in Table III. ^3 H-nitrendipine is the radioligand of choice to determine, after competition at different concentrations, the affinity of compounds of the invention, for the slow Ca^2+ channel binding sites. […] After this in vitro biochemical testing, the compounds of the invention were tested for their CA^2+ antagonist properties on isolated organs. The method used was updated from M Spedding (Nauyn-Schmiedeberg's Arch. Pharmacol., 318, 234-240, 1982) and can be summarized as follows: Aorta rings from male rats were prepared and maintained in oxygenated Krebs solution at 37° C. The contractions were induced by 40 mM K+ in the absence or in the presence of the test compound. Each test compound was tested at least twice. […] The phasic and tonic parts of each response elicited by K+ were considered separately and were expressed in % of their corresponding controls. The IC50 values (from pIC50) were estimated by plotting the % response against the log of the concentrations.
# (§2) Methodological Data for In Vitro Binding Assay of Various Receptors
# (§3) KD values (Dissociation Constant) were determined by Scatchard analysis. Ki values (Inhibition Constant) were calculated according to the Cheng and Prusoff equation, using IC50 values: [formula]
# T1 sequence (O35505 whole entry): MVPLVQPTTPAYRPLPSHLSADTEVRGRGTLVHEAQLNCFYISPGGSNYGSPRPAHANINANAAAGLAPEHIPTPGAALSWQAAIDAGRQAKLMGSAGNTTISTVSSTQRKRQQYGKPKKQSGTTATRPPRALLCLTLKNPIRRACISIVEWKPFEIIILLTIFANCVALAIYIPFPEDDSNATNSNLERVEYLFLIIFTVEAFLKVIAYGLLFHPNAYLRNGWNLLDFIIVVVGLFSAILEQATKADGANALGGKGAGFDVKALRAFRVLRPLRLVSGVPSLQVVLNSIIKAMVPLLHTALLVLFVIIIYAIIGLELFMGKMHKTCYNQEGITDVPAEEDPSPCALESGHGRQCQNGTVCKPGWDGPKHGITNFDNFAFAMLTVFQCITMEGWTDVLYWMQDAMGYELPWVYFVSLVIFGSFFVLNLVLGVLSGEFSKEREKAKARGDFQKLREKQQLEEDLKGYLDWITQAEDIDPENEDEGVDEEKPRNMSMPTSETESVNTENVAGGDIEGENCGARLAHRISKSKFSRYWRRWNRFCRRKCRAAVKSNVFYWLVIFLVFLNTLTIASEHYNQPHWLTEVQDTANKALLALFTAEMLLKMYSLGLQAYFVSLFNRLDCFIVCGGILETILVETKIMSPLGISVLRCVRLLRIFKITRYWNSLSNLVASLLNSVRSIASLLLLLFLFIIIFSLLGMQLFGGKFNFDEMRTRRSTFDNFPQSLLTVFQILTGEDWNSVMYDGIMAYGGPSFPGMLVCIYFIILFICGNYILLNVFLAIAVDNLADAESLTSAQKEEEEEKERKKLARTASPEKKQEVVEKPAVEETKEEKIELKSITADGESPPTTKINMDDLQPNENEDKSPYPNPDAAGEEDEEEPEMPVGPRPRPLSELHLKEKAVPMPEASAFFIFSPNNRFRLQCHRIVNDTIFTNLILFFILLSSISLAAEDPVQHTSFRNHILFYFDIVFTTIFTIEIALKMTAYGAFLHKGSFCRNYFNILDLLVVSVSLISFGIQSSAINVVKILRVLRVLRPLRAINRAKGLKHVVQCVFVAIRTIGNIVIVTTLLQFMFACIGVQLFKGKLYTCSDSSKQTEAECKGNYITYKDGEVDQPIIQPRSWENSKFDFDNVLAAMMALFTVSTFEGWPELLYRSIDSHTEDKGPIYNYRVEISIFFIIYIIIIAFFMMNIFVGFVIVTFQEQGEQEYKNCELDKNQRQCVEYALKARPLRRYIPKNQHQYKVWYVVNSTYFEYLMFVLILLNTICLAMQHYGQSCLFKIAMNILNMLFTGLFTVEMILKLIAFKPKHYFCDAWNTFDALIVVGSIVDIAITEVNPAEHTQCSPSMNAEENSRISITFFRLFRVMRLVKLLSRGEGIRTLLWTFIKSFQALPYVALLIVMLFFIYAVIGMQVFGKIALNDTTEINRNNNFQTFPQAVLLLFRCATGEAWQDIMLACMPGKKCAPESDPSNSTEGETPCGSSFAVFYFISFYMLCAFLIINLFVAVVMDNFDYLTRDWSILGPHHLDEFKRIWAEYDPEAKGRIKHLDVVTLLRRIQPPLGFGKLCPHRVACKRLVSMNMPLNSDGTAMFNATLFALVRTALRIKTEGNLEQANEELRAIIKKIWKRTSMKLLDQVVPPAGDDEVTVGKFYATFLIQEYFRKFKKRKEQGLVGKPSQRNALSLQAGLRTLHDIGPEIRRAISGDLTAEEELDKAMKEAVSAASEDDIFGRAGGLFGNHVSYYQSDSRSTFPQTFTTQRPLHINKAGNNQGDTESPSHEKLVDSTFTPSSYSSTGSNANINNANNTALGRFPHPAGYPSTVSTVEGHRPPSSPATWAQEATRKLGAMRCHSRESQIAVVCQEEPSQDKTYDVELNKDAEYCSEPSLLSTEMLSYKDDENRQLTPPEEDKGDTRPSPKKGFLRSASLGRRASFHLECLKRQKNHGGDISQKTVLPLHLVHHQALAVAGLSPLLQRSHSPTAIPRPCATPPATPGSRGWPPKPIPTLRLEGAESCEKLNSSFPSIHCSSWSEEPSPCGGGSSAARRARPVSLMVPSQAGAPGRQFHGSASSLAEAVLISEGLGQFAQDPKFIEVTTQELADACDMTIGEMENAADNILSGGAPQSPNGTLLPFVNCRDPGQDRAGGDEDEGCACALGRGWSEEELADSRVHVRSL
row,Structure (SMILES),competition curve at slow Ca^2+ channel binding sites
1,CCCCCCCCN(CCCC(C#N)(c1ccc(OC)c(OC)c1)C(C)C)Cc1ccccc1 (centres unmarked) [compound 5],reaching the non-specific level
2,"CCCCCCCCCCN(C)CCCC(C#N)(c1ccc(OC)c(OC)c1)C(C)C (centres unmarked) [compound 6, 5-[(n-decyl)methylamino]-2-(3,4-dimethoxyphenyl)-2-isopropylvaleronitrile]",reaching the non-specific level
3,COc1ccc(C(C#N)(CCCN(C)CC=Cc2ccccc2)C(C)C)cc1OC (centres unmarked) [compound 7],does not reach the non-specific base-line
4,CCCCCCCCNCCCC(C#N)(c1ccc(OC)c(OC)c1)C(C)C (centres unmarked) [compound 8],reaching the non-specific level

# Same assay, conditions: guinea-pig forebrain, 3H-nitrendipine 0.2 nM, pH 7.4, 25 °C, 90 min; read-out: CA2^+ BINDING pKi (converted)
row,Structure (SMILES),Ki [nM]
1,CCCCCCCCN(CCCC(C#N)(c1ccc(OC)c(OC)c1)C(C)C)Cc1ccccc1 (centres unmarked) [compound 5],501
2,"CCCCCCCCCCN(C)CCCC(C#N)(c1ccc(OC)c(OC)c1)C(C)C (centres unmarked) [compound 6, 5-[(n-decyl)methylamino]-2-(3,4-dimethoxyphenyl)-2-isopropylvaleronitrile]",39.8
3,CCCCCCCCNCCCC(C#N)(c1ccc(OC)c(OC)c1)C(C)C (centres unmarked) [compound 8],126

# Test system: Aorta rings
# Experiment: Ca2+ antagonism on isolated rat aorta rings, contractions induced by 40 mM K+
# Type: cell-based
# Conditions: 37 °C, one value printed for phasic/tonic, read-out: AORTA/K+ pIC50 phasic/tonic (converted)
# Experimental: as §1, with “The method used was updated from M Spedding (Nauyn-Schmiedeberg's Arch. Pharmacol., 318, 234-240, 1982) and can be summarized as follows: Aorta rings from male rats were prepared and maintained in oxygenated Krebs solution at 37° C.” left out
row,Structure (SMILES),IC50 [nM]
1,"CCCCCCCCCCN(C)CCCC(C#N)(c1ccc(OC)c(OC)c1)C(C)C (centres unmarked) [compound 6, 5-[(n-decyl)methylamino]-2-(3,4-dimethoxyphenyl)-2-isopropylvaleronitrile]",≥ 1000

# Biological target: T2, 5HT2 receptor (Rattus norvegicus, UniProt P14842)
# T2 construct: frontal cortex preparations of rat; from tissue; host or cells: rat frontal cortex
# T2 sequence (P14842 whole entry): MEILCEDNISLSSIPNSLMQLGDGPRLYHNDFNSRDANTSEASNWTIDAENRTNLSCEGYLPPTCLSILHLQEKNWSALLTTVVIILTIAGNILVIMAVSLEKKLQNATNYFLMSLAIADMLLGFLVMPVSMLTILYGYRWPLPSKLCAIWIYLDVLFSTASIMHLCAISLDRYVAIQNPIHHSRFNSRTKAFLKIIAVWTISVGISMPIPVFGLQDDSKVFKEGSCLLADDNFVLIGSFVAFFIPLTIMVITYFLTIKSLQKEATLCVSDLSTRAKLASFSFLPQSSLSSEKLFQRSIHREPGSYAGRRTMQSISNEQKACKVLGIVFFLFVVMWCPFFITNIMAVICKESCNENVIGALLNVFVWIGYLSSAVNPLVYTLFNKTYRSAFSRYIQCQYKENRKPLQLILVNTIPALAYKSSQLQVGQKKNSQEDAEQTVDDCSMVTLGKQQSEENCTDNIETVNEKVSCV
# Experiment: 5HT2 receptor binding, 3H-ketanserin, rat frontal cortex
# Conditions: not given
# Experimental: as §2, §3
row,Structure (SMILES),Ki [nM]
1,CCCCCCCCN(CCCC(C#N)(c1ccc(OC)c(OC)c1)C(C)C)Cc1ccccc1 (centres unmarked) [compound 5],> 1000
2,"CCCCCCCCCCN(C)CCCC(C#N)(c1ccc(OC)c(OC)c1)C(C)C (centres unmarked) [compound 6, 5-[(n-decyl)methylamino]-2-(3,4-dimethoxyphenyl)-2-isopropylvaleronitrile]",100
3,CCCCCCCCNCCCC(C#N)(c1ccc(OC)c(OC)c1)C(C)C (centres unmarked) [compound 8],158

# Test system: α1 -adrenergic receptor
# Experiment: α1-adrenergic receptor binding, 3H-WB4101, rat forebrain
# Conditions: 3H-WB4101, rat forebrain; in words
# Experimental: as §2, §3
row,Structure (SMILES),affinity for the α1 -adrenergic receptor
1,COc1ccc(C(C#N)(CCCN(C)CC=Cc2ccccc2)C(C)C)cc1OC (centres unmarked) [compound 7],display affinity for the α1 -adrenergic receptor
2,CCCCCCCCNCCCC(C#N)(c1ccc(OC)c(OC)c1)C(C)C (centres unmarked) [compound 8],display affinity for the α1 -adrenergic receptor

# Same assay, conditions: rat forebrain, 3H-WB-4101 1.6 nM, pH 7.4, 25 °C, 15 min; values marked (2) are estimated
row,Structure (SMILES),α1 pKi
1,CCCCCCCCN(CCCC(C#N)(c1ccc(OC)c(OC)c1)C(C)C)Cc1ccccc1 (centres unmarked) [compound 5],≤ 6
2,"CCCCCCCCCCN(C)CCCC(C#N)(c1ccc(OC)c(OC)c1)C(C)C (centres unmarked) [compound 6, 5-[(n-decyl)methylamino]-2-(3,4-dimethoxyphenyl)-2-isopropylvaleronitrile]",< 6
3,COc1ccc(C(C#N)(CCCN(C)CC=Cc2ccccc2)C(C)C)cc1OC (centres unmarked) [compound 7],6.8
4,CCCCCCCCNCCCC(C#N)(c1ccc(OC)c(OC)c1)C(C)C (centres unmarked) [compound 8],6.7

# Test system: not listed separately
# Experiment: Acute oral toxicity in mice
# Conditions: mouse, in vivo, male mice, mortality over 15 days
# Experimental: Compounds #1, #2 , #3, #4 and #7 were tested for acute toxicity. The acute toxicity was determined after oral administration of the test compound to mice. Compound to be tested was suspended in a 1% tragacanth gum mucilage and was administered by means of an intragastric tube to a group of three male mice per dose. The mortailty was recorded over a period of 15 days.
row,Structure (SMILES),LD50 at 360 h [mg/kg]
1,COc1ccc(C(C#N)(CCCN(C)CC=Cc2ccccc2)C(C)C)cc1OC (centres unmarked) [compound 7],> 1000

# Test system: serotonin-2 (5-HT2) receptors of both blood vessels and brain
# Experiment: not given
# Conditions: DeFeudis 1989; cited from earlier work
row,Structure (SMILES),action at serotonin-2 (5-HT2) receptors
1,CC(C)[C@@](C#N)(CCCN(C)CCc1ccccc1)c1ccccc1 [(S)-emopamil],antagonist at serotonin-2 (5-HT2) receptors

# Test system: calcium channel
# Experiment: not given
# Conditions: DeFeudis 1989; cited from earlier work
row,Structure (SMILES),calcium channel blocking activity
1,CC(C)[C@@](C#N)(CCCN(C)CCc1ccccc1)c1ccccc1 [(S)-emopamil],showing calcium channel blocking activity
